Measured values reported in patent US8106092B2, “Treatment of solid cancers” (priority 2004, dated 2012).

Experiments:
[1] = tested on: B16-OVA tumors; assay: SIINFEKL-specific CD8+ T-cell induction after topical PEP005 treatment of B16-OVA (IFNγ ELISPOT); type: in vivo, C57/BL6 mice
Method: (§1) B16 and B16 cells stably expressing ovalbumin (B16-OVA)were grown s.c. in C57BL/6 mice as described previously (Ogbourne et al, Cancer Res 64:2833-2839, 2004; Anraku et al, J Virol 76:3791-3799, 2002). Lung metastases were established as described (Zeh et al, J Immunol 162:989-994, 1999). Lewis lung-OVA (Nelson et al, J Immunol 166:5557-5566, 2001) were grown s.c. in C57BL/6 as described (Lenarczyk et al, Vaccine 22:963-974, 2004).
(§2) Tumors were treated by topical or intratumoral (i.t.) injection (using a 26 gauge needle) of (i) PEP0005 dissolved in acetone and then RPMI 1640 (final concentration of acetone 4%), or (ii) PEP005 formulated in PEG400.
(§3) Mouse splenocytes were analyzed by ex vivo IFNγ ELISPOT essentially as described previously (Le et al, Vaccine 19:4669-4675, 2001), but using MultiScreen-IP plates (Millipore) and 25 IU/ml of recombinant human IL-2 (Cetus).
Following three topical applications of PEP005 to established s.c. B16-OVA tumors on C57/BL6 mice, the number of SIINFEKL [SEQ ID NO:2]-specific CD8^+ T-cell induced were measured using IFNγ ELISPOT. As controls, the SIINFEKL [SEQ ID NO:2] specific CM^+ T-cell induced following (i) PEP005 treatment without tumor, (ii) mock treatment of B16 tumors and (iii) naïve mice (no PEP005 or tumor), were also tested.

[2] = tested on: Lewis lung-OVA tumors; assay: Topical PEP005 treatment of Lewis lung-OVA tumors: tumor growth and SIINFEKL-specific CD8+ T-cell ELISPOT; type: in vivo, C57BL/6 mice
Method: as §1, §2, §3
Lewis lung-OVA tumors were established on five C57/B16 mice; when they had reached 10-20 mm^2, they were treated topically with PEP005. […] A parallel group of tumor-bearing mice (M7-12) were treated (vehicle only) and grew rapidly as expected with mean size±SD shown (FIG. 2, V(M7-12)). […] The sensitivity of this assay is about five spots per 10^6 splenocytes. […] Thus, again PEP005 treatment was associated with induction of anti-cancer CD8^+ T-cells.

[3] = tested on: Lewis lung-OVA tumors; assay: Lewis lung-OVA primary cure and secondary challenge repeated in Foxnl^nu mice; type: in vivo; details: PEP005-mediated cure of primary tumors
[4] = tested on: B16-OVA lung metastases; assay: B16-OVA melanoma lung metastasis model; type: in vivo, C57BL/6 mice
Method: FIGS. 4A to D are graphical representations showing protection against secondary tumors following cure of primary tumors with PEP005. (A) C57BL/6 mice received 5×10^5 Lewis lung-OVA s.c. on the back on day less 7 (d−7). When these primary tumors had reached an average 13.6 mm^2±1.8 SE (range 10-25 mm^2) on d0 they were treated once with 16 μg of PEP005 delivered i.t. In eight mice these primary tumors were cured, and these mice received 5×10^5 Lewis lung-OVA s.c. on d4 on the opposite flank from the primary tumors. The emergence of these secondary tumors was monitored over time (PEP005 cured). In a parallel group of animals (n=5) PEP005 treatment regressed the primary tumors, but after 11-13 days the primary tumors re-emerged. These animals also received secondary tumors as above and their emergence was again monitored over time (PEP005 regressed). Two control groups were included. One group (n=6) received no primary tumors, but was treated s.c. with PEP005 and received secondary tumors on the opposite flank (white triangles, PEP005 s.c.). The second control group (n=8) also received no primary tumors, was not treated with PEP005, and received secondary tumors as above (Controls). […] Secondary B16-OVA (10^5) were injected i.v. on d6 and animals were sacrificed on d27 and lung metastases counted. […]

[5] = tested on: B16 tumors; assay: B16-specific antibody responses by ELISA after PEP005 treatment of B16 tumors; type: in vivo, C57BL/6 mice; details: as early as d11; exceeding untreated animals with large tumor burdens, p=0.045 at 1/100 dilution
Method: FIG. 15 is a graphical representation showing antibody responses following PEP005 treatment of B16 tumors. B16 tumors growing on C57BL/6 mice were cured with PEP005 treatment after they had reached 30-60 mm^3, (one tumor per mouse) and B16-specific antibody titers were measured by standard ELISA on blood taken d11 post treatment initiation (n=6) (▪) or d135 post treatment initiation (n=5) (▴). Antibody titers for untreated animals whose tumors had reached 121.5±SD 20.1 (n=4) by d11 are also shown (X). Naïve mice (n=5) received no tumors (i).
Anti-tumor antibodies are known to have anti-cancer activity. […] B16 cells (10^6) were injected s.c. (1 tumor/mouse) into the flanks of female, 6-10 week-old mice and when tumors had reached ≈30-60 mm^3 they were treated with PEP005 as above. On d11 and 135 serum was taken and analyzed by ELISA for antibodies specific for B16. A group of B16 bearing animals which were not treated with PEP005 and a naïve group were also included. B16 cells were sonicated in carbonate buffer 9pH=9) and absorbed onto Immuno Maxisorp 96 well plates (Nunc) overnight and dried. The plates were blocked with 5% v/v FBS, 0.01% v/v Tween in PBS for 1 hour at 37° C. […]

[6] = topical PEP005, tumors 10-20 mm^2 at treatment

C/C=C(/C)C(=O)O[C@H]1C(C)=C[C@]23C(=O)[C@@H](C=C(CO)[C@@H](O)[C@]12O)[C@H]1[C@@H](C[C@H]3C)C1(C)C [PEP005, ingenol-3-angelate]
tumor bearing animals cured ([1]; B16-OVA tumors treated topically with PEP005): 4/7
SIINFEKL-specific CD8+ T-cell responses (IFNγ ELISPOT) ([1]; mice receiving PEP005 without tumor, limit of detection five spots/10^6 splenocytes): no significant responses
SIINFEKL-specific CD8+ T-cell responses (IFNγ ELISPOT) ([1]; mice with B16-OVA tumors treated with three topical applications of PEP005 (cured mice, n=4), p=0.058 vs combined negative controls): some weak variable responses
SIINFEKL-specific CD8+ T-cell responses ([2]; animals with Lewis lung-OVA tumors treated topically with PEP005): a range of responses that correlated with the effectiveness of the treatment
SIINFEKL-specific CD8+ T-cell responses, mean ± SD for all mice ([2]; topical PEP005, mice without tumors, assay sensitivity about five spots): 6.3±9.8 spots per 10^6 splenocytes
animals showing a limited response of five treated [2, 6]: two
animals showing a partial response of five treated [2, 6]: two
tumors cured of the five tumors treated [2, 6]: one
protection against secondary challenge [3]: no protective effect
growth of lung metastases ([4]; partial regression of the primary tumors by PEP005): failed to inhibit significantly
number of lung metastases ([4]; s.c. primary B16-OVA cured by PEP005, B16-OVA i.v. six days after treatment, Wilcoxon p=0.046): reduce significantly
B16-specific antibody responses (ELISA) [5]: clearly detectable antibody responses
